Laboratory results from patent publication US20050129779A1, “Use of a hsp inducing compound to limit the side effects of retinoids” (priority 2002, published 2005).

Experiments:
IL-1 alpha = assay: Interleukin-1 ELISA in HaCat keratinocytes and fibroblasts (inflammation induced by retinoids); assay type: cell-based, human; conditions: 10^-7 M ATRA 6 days, 3% extract 48 hours
Description: The Artemia extract from example 1 was used at 3% in in vitro tests in order to show the benefits of applying it in combination with retinoids, with the overall goal of diminishing the inflammation induced by retinoids.
Human HaCat keratinocytes and fibroblasts were cultured in 100mm diameter culture dishes. When the cells reached 50% confluence, they were either treated with 3% of extract from example 1 or not, for 48 hours. In a parallel manner, concentrations of 10^−7M all-trans retinoic acid (ATRA) were, or were not, applied.
The following experimental conditions were used for the different treatment groups: • Control condition (no treatment); • Extract from example 1 for 48n hours; • All-trans retinoic acid (ATRA) for 6 days; • All-trans retinoic acid (ATRA) for 6 days of which 48 hours were treated in combination with the extract from example 1.
After six days in culture, the dose of Interleukin-1 was determined using ELISA, to show evidence of an inflammatory reaction.

HSP 70 [1] = conditions: ex vivo skin irradiated with 200 mJ/cm^2 UVB; 10^-7 retinoic acid; 1-3% extract
Description: The samples were either treated or untreated with 10^−7retinoic acid plus 1-3% of the extract from example 1. The skin samples were subsequently fixed in 9% formol salt for 10 hours. They were then embedded in paraffin using an automated method. 2-3 urn sections were then cut to be used for immunostaining.
The experiments in example three were repeated except that the skin samples were irradiated with a 200 mJ/cm^2 dose of UVB.

HSP 70 [2] = assay: Immuno-blot of HSP in cultured human fibroblasts; assay type: cell-based; conditions: 10^-7 M ATRA, 3% extract
Description: […] Several different experimental conditions were used for the fibroblasts.
The conditions that were tested on the fibroblasts were as follows: • Control condition (non-treated cells) • Cells treated with 10^−7M all-trans retinoic acid (ATRA) • Cells treated with 3% of the extract from example 1 • Cells treated with 10^−7 M all-trans retinoic acid and 3% of the extract from example 1.
The results illustrated in FIGS. 1 and 2 represent the quantities of HSP obtained by immunoblotting carried out on the human fibroblasts following the treatments in various culture conditions.

HSP 70 [3] = assay: Ex vivo immunostaining of HSP 70 in cultured skin samples; assay type: cell-based; conditions: ex vivo skin cultured 5 days; 10^-7 retinoic acid; 1-3% extract
From the text: Ex vivo immunostaining studies have enabled it to be determined that HSP 70 is expressed in skin samples which have been cultured for 5 days. The samples were either treated or untreated with 10^−7retinoic acid plus 1-3% of the extract from example 1.

CC1=C(/C=C/C(C)=C/C=C/C(C)=C/C(=O)O)C(C)(C)CCC1 [retinoic acid, all-trans retinoic acid]
IL-1 alpha concentration / inflammatory response (ELISA, FIG. 3) (IL-1 alpha): significantly augmented
HSP 70 expression in skin samples following UV stress (immunostaining) (HSP 70 [1]): clearly diminished
HSP 70 expression (immuno-blot, FIG. 2) (HSP 70 [2]; aging human fibroblasts (printed: cultured)): slightly augmented
HSP 70 expression (immuno-blot, FIG. 1) (HSP 70 [2]; young human fibroblasts (printed: cultured for 24 hours)): diminished
HSP 70 expression in skin samples (immunostaining) (HSP 70 [3]): clearly express less HSP 70 than non-treated skin samples
